Patent US20090035306A1 (KALYPSYS, INC., priority 2006, published 2009)

Biological target: T1, human TGR5 (Homo sapiens, UniProt Q8TDU6)
T1 construct: expressed in transfected cells
T1 sequence (Q8TDU6 1-330): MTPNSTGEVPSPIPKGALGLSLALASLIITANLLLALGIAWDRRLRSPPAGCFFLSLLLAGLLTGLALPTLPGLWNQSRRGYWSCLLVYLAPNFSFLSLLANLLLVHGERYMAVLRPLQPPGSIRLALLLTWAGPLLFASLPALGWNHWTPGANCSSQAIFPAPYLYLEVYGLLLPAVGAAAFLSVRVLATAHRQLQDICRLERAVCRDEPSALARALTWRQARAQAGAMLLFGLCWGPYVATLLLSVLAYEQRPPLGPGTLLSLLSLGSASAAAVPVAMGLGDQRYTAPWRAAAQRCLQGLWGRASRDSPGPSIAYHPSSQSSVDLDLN
Test: cAMP production assay in HEK293 cells stably expressing TGR5 (LANCE TR-FRET)
Assay type: cell-based
Details: 30 minutes stimulation, read-out: cAMP Production in 293-TGR5 Cells EC50
Method in brief: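 HEK293 cells stably transfected with human TGR5, incubated overnight in DMEM with 0.1% FBS, then given IBMX (1 mM final) and stimulated with compounds for 30 minutes. cAMP measured by LANCE TR-FRET after 1-7 h detection at room temperature. EC50 values reported as ≦10 μM (+) or >10 μM (−).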

Row | SMILES | EC50 [µM]
1 | COc1cc(-c2nc3ccccc3c(=O)n2NCc2ccc(Br)cc2)ccc1O [Example 99, 3-(4-bromobenzylamino)-2-(4-hydroxy-3-methoxyphenyl)quinazolin-4(3H)-one] | ≤ 10
2 | O=c1c2cc(O)ccc2nc(-c2ccc(F)cc2)n1NCc1ccc(Cl)cc1 [Example 98, 3-(4-chlorobenzylamino)-2-(4-fluorophenyl)-6-hydroxyquinazolin-4(3H)-one] | ≤ 10
